The text below walks through data of PubChem BioAssay AID179 (DTP/NCI, 2004).

The test has as its system CEM cells HIV-1 protection, formazan growth assay. The test can be described thus: NCI AIDS Antiviral Assay. The note with it: for IC50: measured here: growth of uninfected CEM cells. An outline of the steps:
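Soluble formazan readout of cell growth; CEM cells ± HIV-1; 5 drug concs. ≥50% protection → retest; ≥50% again = moderately active; reproducible 100% = confirmed active.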

Structures are written as SMILES. Activity calls are given as the source filed them.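 The calls were made as follows: active = compounds giving half or more protection of infected cells from virus-caused growth loss, again on retest; inactive = the rest.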

In the case of `O=[N+]([O-])C1=C(c2ccccc2)SC([N+](=O)[O-])=C(c2ccccc2)S1`, the EC50 was over 200 µM and the IC50 turned out to be 14.8 µM.

For the compound `CCCCc1ccc(Nc2nc(Cl)c3c(ncn3COCCOC(C)=O)n2)cc1`, the EC50 was over 200 µM and the IC50 stood at 33.1 µM.

Take `O=[N+]([O-])c1cccc(N=Cc2ccc(Cl)cc2)c1`: the EC50 was over 200 µM and the IC50 amounted to 123 µM.

Consider `CCOC(=O)/C(=C\n1c(=S)[nH]c2ccccc21)C(=O)c1ccccc1`, for which the EC50 is over 200 µM and the half-maximal inhibitory concentration (IC50) was over 200 µM.

On to `COc1ccc2cc3[n+](cc2c1OC)CCc1cc(O)c(O)cc1-3`, for which the outcome was inactive.

Regarding `O=C(O)c1c2c(c(C(=O)O)c3ccccc13)-c1ccccc1-2`, the outcome was inactive.

On to `Cc1ccc(C)c(NC(=O)CC/C(=N\NC(=O)C(N)=O)C(C)C(=O)c2ccc(O)cc2)c1` (stereo not drawn), for which the EC50 was over 155 µM and the IC50 was over 155 µM.

Turning to `NC(=NCC(=O)O)c1ncn(C2OC(CO)C(O)C2O)n1` (stereo not drawn), the result was inactive.

`CN(C)CCCN1N=Nc2cccc3cccc1c23`: the result was inactive.

As to `O=[N+]([O-])c1ccc(NC(=S)N=Nc2c(O)[nH]c3ccccc23)cc1`, the EC50 was over 200 µM and the IC50 amounted to 15.5 µM.

For the compound `COc1cc(-c2[o+]c3cc(O)cc(OC4OC(CO)C(O)C(O)C4O)c3cc2OC2OC(CO)C(O)C(O)C2O)cc(OC)c1O` (stereo not drawn), the EC50 was over 67.6 µM and the IC50 worked out at 40.7 µM.

As to `Cc1ccc(C(=O)O)cc1S(=O)(=O)Nn1cnc2ccc(S(=O)(=O)Nc3ccccc3C(=O)O)cc2c1=O`, the EC50 was over 200 µM and the IC50 is over 200 µM.

Turning to `CC(=O)SC1CC(=O)OC1=O` (stereo not drawn), the EC50 was over 200 µM and the IC50 was over 200 µM.

On to `O=S(=O)(c1ccccc1)N1C2CCCC21` (stereo not drawn), for which the outcome was inactive.

With `CC1OC(OCC2OC(Oc3c(-c4ccc(O)cc4)oc4cc(O)cc(O)c4c3=O)C(OC3OCC(O)(CO)C3O)C(O)C2O)C(O)C(O)C1O` (stereo not drawn), the EC50 is over 347 µM and the IC50 was over 347 µM.

`S=c1sc2c(s1)SCCS2`: the EC50 was over 200 µM and the IC50 stood at 155 µM.

As for `O=C(c1cccs1)N(C(=S)N1CCN(c2ccccn2)CC1)c1ccccc1`, the EC50 is over 17.8 µM and the IC50 is over 17.8 µM.

Consider `CC(C)(C)c1cc(C(c2ccccc2)c2ccccc2)cc(C(C)(C)C)c1O`, for which the EC50 was over 60.3 µM and the IC50 was found to be 33.1 µM.

Consider `CCN1C(=O)C(C)S/C1=N\NC(=O)CSc1nc2ccccc2c(=O)n1CC` (stereo not drawn), for which the EC50 was over 200 µM and the IC50 came to 145 µM.

For the compound `CCSCCCCCCCCCCCC(=O)O`, the EC50 is 9.33 µM and the IC50 amounted to 32.4 µM.

As for `CN(C)CCCN=C(N)CSP(=O)(O)O`, the EC50 was over 200 µM and the IC50 was found to be 32.4 µM.

As for `c1cc2ccc1C1NCCCN1CCN1CCCNC1c1ccc(cc1)C1NCCCN1CCN1CCCNC21` (stereo not drawn), the EC50 is over 13.2 µM and the half-inhibitory concentration (IC50) stood at 9.33 µM.

On to `COc1ccc(-c2cc(-c3ccccc3)n(C3OCC(OC(C)=O)C(OC(C)=O)C3OC(C)=O)c(=S)c2C#N)cc1` (stereo not drawn), for which the EC50 is over 200 µM and the IC50 is 43.7 µM.

Regarding `O=c1cc(CBr)c2ccc(O)cc2o1`, the EC50 was over 200 µM and the IC50 is 102 µM.

`S=C(Nc1ccccc1)Nc1[nH]c(=S)sc1-c1nc2ccccc2[nH]1`: the EC50 is over 1.86 µM and the IC50 is over 1.86 µM.

On to `CCOC(OCC)C(CC)[Se]c1ccccc1` (stereo not drawn), for which the EC50 is over 87.1 µM and the IC50 was over 87.1 µM.

For the compound `O=[N+]([O-])c1cc(Cl)ccc1S(=O)(=O)c1ccc(Cl)cc1[N+](=O)[O-]`, the result was inactive.

With `CC1(C)OC(=O)N(c2ccccc2)C12C=Cc1cc([N+](=O)[O-])ccc1O2` (stereo not drawn), the EC50 is over 151 µM and the half-maximal inhibitory concentration (IC50) came out at 61.7 µM.

Consider `NCCC1([N+](=O)[O-])CCNCC1`, for which the EC50 was over 200 µM and the IC50 is over 200 µM.

On to `Cc1cn(C2CCC(COP(=O)(OCC(=O)C(C)(C)C)OCC(=O)C(C)(C)C)O2)c(=O)[nH]c1=O` (stereo not drawn), for which the EC50 is 30.9 µM and the IC50 is over 200 µM.

As for `Cn1cc(NC(=O)Nc2cc(C(=O)Nc3cc(C(=O)Nc4ccc5c(S(=O)(=O)O)cccc5c4S(=O)(=O)O)n(C)c3)n(C)c2)cc1C(=O)Nc1cc(C(=O)Nc2ccc3c(S(=O)(=O)O)cccc3c2S(=O)(=O)O)n(C)c1`, the EC50 was 22.9 µM and the IC50 worked out at 148 µM.

As for `N#CC(C(=O)/C(=N/NC(=O)c1ccccc1O)C(C#N)c1ccccc1)c1ccccc1` (stereo not drawn), the EC50 is over 589 µM and the IC50 was found to be 10.7 µM.

Turning to `CCCCCCCCN(/N=C/c1c2c(O)c3c(O)c(C)c4c(c3c1O)C(=O)C(C)(O/C=C\C(OC)C(C)C(OC(C)=O)C(C)C(O)C(C)C(O)C(C)/C=C/C=C(C)C(=O)N2)O4)C12CC3CC(CC(C3)C1)C2` (stereo not drawn), the EC50 is over 200 µM and the IC50 was found to be 8.91 µM.

Take `CCC1=C(C(C)=O)[C@@H]2CCCCC[C@@H](C(=O)OC)C2C1=O` (stereo partly drawn): the EC50 is 191 µM and the 50% inhibitory concentration (IC50) was over 200 µM.

For `O=[N+]([O-])c1cccc(C2=NC(=S)NC(c3cc(Cl)ccc3O)C2)c1` (stereo not drawn), the EC50 is over 200 µM and the IC50 is 141 µM.

Take `CCCCCCCCCCCCS(=O)(=O)O` (tested in a mixture with another compound): the EC50 is over 200 µM and the IC50 worked out at 107 µM.

With `O=C1/C(=C/c2ccc3c(c2)CCC3)Cc2cc3c(cc21)CCC3`, the EC50 was over 200 µM and the IC50 is over 200 µM.

As for `OC1(c2ccccc2)C2CCN(CC2)C1CN1CCOCC1` (stereo not drawn), the EC50 was over 200 µM and the IC50 was over 200 µM.

With `Oc1ccc2ccccc2c1C1=NNC(c2ccc(Cl)cc2)C1` (stereo not drawn), the EC50 is over 200 µM and the IC50 is 40.7 µM.

As for `COc1ccc(N2C(=O)C3c4[nH]c5c(C)cccc5c4C4CCC(C(C)C)CC4C3C2=O)cc1` (stereo not drawn), the EC50 is over 200 µM and the IC50 was determined as 23.4 µM.

As for `Cc1cccc(C)c1NC(=O)C(=O)C(C(=O)c1ccccc1-c1ccccc1)C1OC(=O)c2ccccc21` (stereo not drawn), the EC50 is over 135 µM and the IC50 worked out at 24.5 µM.

On to `CC1(C)Oc2ccc3ccc(=O)oc3c2[C@@H](OC(=O)C23CCC(C)(C(=O)O2)C3(C)C)[C@H]1OC(=O)C12CCC(C)(C(=O)O1)C2(C)C` (stereo partly drawn), for which the EC50 was 2.95 µM and the IC50 stood at 14.1 µM.

On to `O=S(=O)(c1ccccc1)C(c1ccc2ccccc2n1)S(=O)(=O)c1ccccc1`, for which the EC50 was over 200 µM and the IC50 came out at 41.7 µM.

With `CC(C)(SSC(C)(C)C1NC(=O)NC1=O)C1NC(=O)NC1=O` (stereo not drawn), the EC50 was over 200 µM and the IC50 turned out to be 120 µM.

`CO[C@@]12[C@H](COC(N)=O)C3=C(C(=O)C(C)=C(N)C3=O)N1C[C@@H]1N[C@@H]12`: the EC50 is over 17.4 µM and the IC50 is 0.794 µM.

In the case of `COc1ccccc1NC(=O)C(=O)C1C(=O)Nc2ccccc2S1=O` (stereo not drawn), the result was inactive.

As to `COCCCCCCCCCCC(=O)O`, the EC50 is over 200 µM and the half-maximal inhibitory concentration (IC50) is over 200 µM.

Regarding `O=C1C=CC(=O)c2nc3c(cc21)CCC3`, the EC50 was over 91.2 µM and the IC50 was 10.5 µM.

Consider `CC12CCC(C(=Nc3ccc([N+](=O)[O-])cc3)C1=O)C2(C)C` (stereo not drawn), for which the EC50 is over 200 µM and the half-maximal inhibitory concentration (IC50) is 35.5 µM.

Turning to `[O-]c1c2c(nn1-c1ccc(Cl)cc1)c1ccccc1c[n+]2Cc1ccccc1`, the EC50 was over 5.13 µM and the IC50 is over 5.13 µM.
